Legend:
Phakopsora pachyrhizi = experiment: Fungicidal activity, soybean leaf disc preventative (Asian soybean rust); format: in vivo; conditions: foliar, 200 ppm in the applied formulation, soybean leaf disks, compared to untreated control, 12 to 14 days after application, read-out: disease control
How it was run: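 Read-out is percent disease control relative to untreated check discs, assessed once untreated discs show adequate disease, 12 to 14 days after application. Compounds, tested at 200 ppm in the applied formulation, are sprayed onto soybean leaf discs one day before inoculation with a spore suspension.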

[1] = tested on: Puccinia recondita f. Sp. Tritici; experiment: Fungicidal activity, wheat leaf disc curative (brown rust); format: in vivo; conditions: foliar, 200 ppm in the applied formulation, wheat leaf segments cv. Kanzler, curative (applied 1 day after inoculation), compared to untreated control, 6 to 8 days after application, read-out: disease control
How it was run: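 Compounds, prepared from DMSO solutions of at most 10 mg/ml and diluted just before spraying, are applied curatively to inoculated Kanzler wheat leaf segments. Segments are incubated at 19° C and 75% RH in a climate cabinet; disease control relative to untreated is evaluated 6 to 8 days later.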

[2] = tested on: Puccinia recondita f. Sp. Tritici; experiment: Fungicidal activity, wheat leaf disc preventative (brown rust); format: in vivo; conditions: foliar, 200 ppm in the applied formulation, wheat leaf segments cv. Kanzler, compared to untreated control, 7 to 9 days after application, read-out: disease control
How it was run: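 Preventative leaf-segment test: spray application of diluted formulated compound on wheat cv. Kanzler, spore inoculation after 1 day. Percent control relative to untreated segments rated 7 to 9 days post-application, with incubation at 19° C, 75% relative humidity, 12 h photoperiod.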

[3] = tested on: Glomerella lacenarium (Colletotrichum lacenarium); experiment: Fungicidal activity, liquid culture, cucumber preventative (anthracnose); format: cell-based; conditions: 20 ppm in the applied formulation, liquid culture in PDB, inhibition of growth measured photometrically 3 to 4 days after application, compared to untreated control, read-out: disease control
How it was run: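 Spore-based broth assay: conidia mixed into PDB meet compound from a DMSO solution in 96-well format, incubate at 24° C., then inhibition of growth is determined by photometry 3–4 days later relative to the untreated check.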

CN(CC#N)C(=O)N(C)Cc1ccc(-c2noc(C(F)(F)F)n2)s1 [Compound 4.76, 1-(cyanomethyl)-1,3-dimethyl-3-[[5-[5-(trifluoromethyl)-1,2,4-oxadiazol-3-yl]-2-thienyl]methyl]urea]
≥ 80%: pest or weed control at 200 ppm (Phakopsora pachyrhizi) | pest or weed control at 200 ppm [1] | pest or weed control at 200 ppm [2] | inhibition of growth at 20 ppm [3]

COCC(=O)N(Cc1ccc(-c2noc(C(F)(F)F)n2)s1)OC [Compound 1.9, N,2-dimethoxy-N-[[5-[5-(trifluoromethyl)-1,2,4-oxadiazol-3-yl]-2-thienyl]methyl]acetamide]
≥ 80%: pest or weed control at 200 ppm (Phakopsora pachyrhizi) | pest or weed control at 200 ppm [1] | pest or weed control at 200 ppm [2] | inhibition of growth at 20 ppm [3]

CCN(Cc1ccc(-c2noc(C(F)(F)F)n2)s1)C(=O)NC1CC1 [Compound 5.3, 3-cyclopropyl-1-ethyl-1-[[5-[5-(trifluoromethyl)-1,2,4-oxadiazol-3-yl]-2-thienyl]methyl]urea]
≥ 80%: pest or weed control at 200 ppm (Phakopsora pachyrhizi) | pest or weed control at 200 ppm [1] | pest or weed control at 200 ppm [2] | inhibition of growth at 20 ppm [3]

CCN(Cc1ccc(-c2noc(C(F)(F)F)n2)s1)C(=O)CCCOC [Compound 4.28, N-ethyl-4-methoxy-N-[[5-[5-(trifluoromethyl)-1,2,4-oxadiazol-3-yl]-2-thienyl]methyl]butanamide]
≥ 80%: pest or weed control at 200 ppm (Phakopsora pachyrhizi) | pest or weed control at 200 ppm [1] | pest or weed control at 200 ppm [2] | inhibition of growth at 20 ppm [3]

CN(Cc1ccc(-c2noc(C(F)(F)F)n2)s1)C(=O)C1(C)CC1 [Compound 5.21, N,1-dimethyl-N-[[5-[5-(trifluoromethyl)-1,2,4-oxadiazol-3-yl]-2-thienyl]methyl]cyclopropanecarboxamide]
≥ 80%: pest or weed control at 200 ppm (Phakopsora pachyrhizi) | pest or weed control at 200 ppm [1] | pest or weed control at 200 ppm [2] | inhibition of growth at 20 ppm [3]

CON(C(=O)C1CC1)C(C)c1ccc(-c2noc(C(F)(F)F)n2)s1 (stereo not drawn) [Compound 1.48, N-methoxy-N-[1-[5-[5-(trifluoromethyl)-1,2,4-oxadiazol-3-yl]-2-thienyl]ethyl]cyclopropanecarboxamide]
≥ 80%: pest or weed control at 200 ppm (Phakopsora pachyrhizi) | pest or weed control at 200 ppm [1] | pest or weed control at 200 ppm [2] | inhibition of growth at 20 ppm [3]

CN(Cc1ccc(-c2noc(C(F)(F)F)n2)s1)C(=O)C(N)=O [Compound 6.7, N′-methyl-N′-[[5-[5-(trifluoromethyl)-1,2,4-oxadiazol-3-yl]-2-thienyl]methyl]oxamide]
≥ 80%: pest or weed control at 200 ppm (Phakopsora pachyrhizi) | pest or weed control at 200 ppm [1] | pest or weed control at 200 ppm [2] | inhibition of growth at 20 ppm [3]

CCN(Cc1ccc(-c2noc(C(F)(F)F)n2)s1)C(=O)C1CC1C (stereo not drawn) [Compound 5.16, N-ethyl-2-methyl-N-[[5-[5-(trifluoromethyl)-1,2,4-oxadiazol-3-yl]-2-thienyl]methyl]cyclopropanecarboxamide]
≥ 80%: pest or weed control at 200 ppm (Phakopsora pachyrhizi) | pest or weed control at 200 ppm [1] | pest or weed control at 200 ppm [2] | inhibition of growth at 20 ppm [3]

C=CCN(C)C(=O)N(C)Cc1ccc(-c2noc(C(F)(F)F)n2)s1 [Compound 4.77, 1-allyl-1,3-dimethyl-3-[[5-(5-(trifluoromethyl)-1,2,4-oxadiazol-3-yl]-2-thienyl]methyl]urea]
≥ 80%: pest or weed control at 200 ppm (Phakopsora pachyrhizi) | pest or weed control at 200 ppm [1] | pest or weed control at 200 ppm [2] | inhibition of growth at 20 ppm [3]

CON(Cc1ccc(-c2noc(C(F)(F)F)n2)s1)C(=O)CC1CC1 [Compound 1.22, 2-cyclopropyl-N-methoxy-N-[[5-[5-(trifluoromethyl)-1,2,4-oxadiazol-3-yl]-2-thienyl]methyl]acetamide]
≥ 80%: pest or weed control at 200 ppm (Phakopsora pachyrhizi) | pest or weed control at 200 ppm [1] | pest or weed control at 200 ppm [2] | inhibition of growth at 20 ppm [3]

COCCC(=O)N(Cc1ccc(-c2noc(C(F)(F)F)n2)s1)OC [Compound 1.11, N,3-dimethoxy-N-[[5-[5-(trifluoromethyl)-1,2,4-oxadiazol-3-yl]-2-thienyl]methyl]propanamide]
≥ 80%: pest or weed control at 200 ppm (Phakopsora pachyrhizi) | pest or weed control at 200 ppm [1] | pest or weed control at 200 ppm [2] | inhibition of growth at 20 ppm [3]

C#CCNC(=O)N(Cc1ccc(-c2noc(C(F)(F)F)n2)s1)OCC(F)F [Compound 4.93, 1-(2,2-difluoroethoxy)-3-prop-2-ynyl-1-[[5-[5-(trifluoromethyl)-1,2,4-oxadiazol-3-yl]-2-thienyl]methyl]urea]
≥ 80%: pest or weed control at 200 ppm (Phakopsora pachyrhizi) | pest or weed control at 200 ppm [1] | pest or weed control at 200 ppm [2] | inhibition of growth at 20 ppm [3]

CC1CC1C(=O)NCc1ccc(-c2noc(C(F)(F)F)n2)s1 (stereo not drawn) [Compound 3.5, 2-methyl-N-[[5-[5-(trifluoromethyl)-1,2,4-oxadiazol-3-yl]-2-thienyl]methyl]cyclopropanecarboxamide]
≥ 80%: pest or weed control at 200 ppm (Phakopsora pachyrhizi) | pest or weed control at 200 ppm [1] | pest or weed control at 200 ppm [2] | inhibition of growth at 20 ppm [3]

CCCC(=O)N(Cc1ccc(-c2noc(C(F)(F)F)n2)s1)OC [Compound 1.21, N-methoxy-N-[[5-[5-(trifluoromethyl)-1,2,4-oxadiazol-3-yl]-2-thienyl]methyl]butanamide]
≥ 80%: pest or weed control at 200 ppm (Phakopsora pachyrhizi) | pest or weed control at 200 ppm [1] | pest or weed control at 200 ppm [2] | inhibition of growth at 20 ppm [3]

CON(Cc1ccc(-c2noc(C(F)(F)F)n2)s1)C(C)=O [Compound 1.25, N-methoxy-N-[[5-[5-(trifluoromethyl)-1,2,4-oxadiazol-3-yl]-2-thienyl]methyl]acetamide]
≥ 80%: pest or weed control at 200 ppm (Phakopsora pachyrhizi) | pest or weed control at 200 ppm [1] | pest or weed control at 200 ppm [2] | inhibition of growth at 20 ppm [3]

O=C(NCc1ccc(-c2noc(C(F)(F)F)n2)s1)C1CC1 [Compound 3.1, N-[[5-[5-(trifluoromethyl)-1,2,4-oxadiazol-3-yl]-2-thienyl]methyl]cyclopropanecarboxamide]
≥ 80%: pest or weed control at 200 ppm (Phakopsora pachyrhizi) | pest or weed control at 200 ppm [1] | pest or weed control at 200 ppm [2] | inhibition of growth at 20 ppm [3]

CCN(CC)C(=O)N(C)Cc1ccc(-c2noc(C(F)(F)F)n2)s1 [Compound 4.79, 1,1-diethyl-3-methyl-3-[[5-[5-(trifluoromethyl)-1,2,4-oxadiazol-3-yl]-2-thienyl]methyl]urea]
≥ 80%: pest or weed control at 200 ppm (Phakopsora pachyrhizi) | pest or weed control at 200 ppm [1] | pest or weed control at 200 ppm [2] | inhibition of growth at 20 ppm [3]

O=C(NCc1ccc(-c2noc(C(F)(F)F)n2)s1)C1CCOC1 (stereo not drawn) [Compound 3.3, N-[[5-[5-(trifluoromethyl)-1,2,4-oxadiazol-3-yl]-2-thienyl]methyl]tetrahydrofuran-3-carboxamide]
≥ 80%: pest or weed control at 200 ppm (Phakopsora pachyrhizi) | pest or weed control at 200 ppm [1] | pest or weed control at 200 ppm [2] | inhibition of growth at 20 ppm [3]

CCNC(=O)N(CC)Cc1ccc(-c2noc(C(F)(F)F)n2)s1 [Compound 4.8, 1,3-diethyl-1-[[5-[5-(trifluoromethyl)-1,2,4-oxadiazol-3-yl]-2-thienyl]methyl]urea]
≥ 80%: pest or weed control at 200 ppm (Phakopsora pachyrhizi) | pest or weed control at 200 ppm [1] | pest or weed control at 200 ppm [2] | inhibition of growth at 20 ppm [3]

O=C(NCc1ccc(-c2noc(C(F)(F)F)n2)s1)c1ccccc1Cl [Compound 3.9, 2-chloro-N-[[5-[5-(trifluoromethyl)-1,2,4-oxadiazol-3-yl]-2-thienyl]methyl]benzamide]
≥ 80%: pest or weed control at 200 ppm (Phakopsora pachyrhizi) | pest or weed control at 200 ppm [1] | pest or weed control at 200 ppm [2] | inhibition of growth at 20 ppm [3]

CCC(=O)N(Cc1ccc(-c2noc(C(F)(F)F)n2)s1)OC [Compound 1.12, N-methoxy-N-[[5-[5-(trifluoromethyl)-1,2,4-oxadiazol-3-yl]-2-thienyl]methyl]propanamide]
≥ 80%: pest or weed control at 200 ppm (Phakopsora pachyrhizi) | pest or weed control at 200 ppm [1] | pest or weed control at 200 ppm [2] | inhibition of growth at 20 ppm [3]
